We go through 1 molecule from patent US20240050577A1, “CDK INHIBITORS AND PHARMACEUTICAL USES THEREOF” (RISEN (SUZHOU) PHARMA TECH CO., LTD., priority 2022, published 2024).

Holding throughout (type): cell-based
The target in one assay is T1, CDK6 protein (Homo sapiens, UniProt Q00534).
T1 construct: host or cells: OVCAR3
Briefly: CDK6 protein degradation in OVCAR3 cells (Western blot). The settings on record: 24 h. Here is the method:
(§1) OVCAR3 (Cobioer, CBP60294) cell line of exponential growth phase was inoculated on a 6-well cell culture plate (Corning, 3516) according to 3E5/well scheme; and the plate was incubated overnight in a 5%-carbon dioxide incubator at 37° C. The next day, the test compound was dissolved in DMSO (Sigma, RNBF5902) to prepare a 10-mM concentration stock solution. The stock solution was diluted with complete medium, giving working solutions of different concentrations. Working solution was added into the corresponding wells of the orifice plate. The plate was placed in a 5% carbon dioxide incubator, set at 37° C., and incubated for 24 h. The plate was removed from the incubator, and the cells were washed twice with precooled PBS (Gibco, 14190250), followed by addition of 40 μL RIPA lysis buffer (containing protease inhibitor (Invitrogen™, AM2696)) to each well. Adherent cells were scraped off with a cell scraper, and the cell lysate was transferred to a 1.5 mL centrifuge tube, and the tube was placed on ice for 30 minutes. After completion of cell lysis, the tube was centrifugated for 10 min at 4° C., 14000 rpm. The supernatant was transferred into a new 1.5-mL centrifuge tube, and the new tube was placed on ice, followed by measurement of the protein concentration with BCA protein detection kit (Thermo Fisher, 23225). A mixture of cell lysate (40 μL) and loading buffer (10 μL, 5×SDS (Beyotime, P0015L)) was placed into a water bath at 95° C. for 10 min to denature the protein. The denatured protein sample, 30 μL/well, was added into a corresponding well of 4-20% Bis-Tris gel (Kingsley, M00657). The initial voltage was adjusted to 80-V and run for 30 min, followed by voltage increased to 120 V, and run for another 40 min, until the strip had run to the appropriate position. After electrophoresis, iBlot2 (Life Technologies, IB21001) was used to transfer the film under the condition of 20 V and 7 min. At the end of film transfer, 5% skimmed milk powder was sealed at room temperature for 2 h, and then TBST (Thermo Scientific, 28360) buffer solution was used to rinse for three times, 10 minutes each time. Skimmed milk powder (5%) was diluted with the first antibody in the appropriate proportion, and the working solution of the first antibody was prepared and incubated overnight at 4° C. After the incubation of the first antibody, the membrane was washed three times at room temperature with TBST buffer solution, 10 minutes each time; and the second antibody was incubated with 5% skimmed milk powder at room temperature for 1 h. After washing the film for three times with TBST, ECL color developing solution (Thermofisher 34095) was added, and an image was taken on a Biorad Chemi Doc gel imager. The band gray value was analyzed (Image Lab).
(§2) Symbols of “−”, “+”, “++”, and “+++” indicate that the degradation level of CDK protein induced by test compound was 10% or less, 11 to 30%, 31 to 60%, and greater than 60%, respectively.
(§3) Half-maximum degradation concentrations (DC50s) of test compounds were calculated using GraphPad Prism and their values are shown in Table 4. Symbols of “++++”, “+++”, “++”, “+” and “−” represent DC50s equal or less than 10 nM, 11-50 nM, 51-100 nM, 101-200 nM, and >200 nM, respectively.
Background: Immunoblotting shows a protein as a band on a membrane.

For another assay, the target named is T2, CDK2 protein (Homo sapiens, UniProt P24941).
T2 construct: host or cells: OVCAR3
The assay can be described thus: CDK2 protein degradation in OVCAR3 cells (Western blot). The note with it: 24 h. As for the experimental part:
as §1, §2, §3

The next assay deals with OVCAR3 cells. The assay can be described thus: Cell proliferation study (Cell Titer Glo, 72 h). The settings on record: Homo sapiens, OVCAR-3, luminescence, read-out: IC50, inhibitory effect on cellular proliferation. For orientation: In ATP-based viability assays light output follows the ATP content of the culture.
Another assay has as its target T3, CDK4 protein (Homo sapiens, UniProt P11802).
T3 construct: host or cells: OVCAR3
The assay can be described thus: CDK4 protein degradation in OVCAR3 cells (Western blot). The settings on record: 24 h. Here is the method:
as §1, §2, §3

Another assay addresses T4, CDK1 protein (Homo sapiens, UniProt P06493).
T4 construct: host or cells: OVCAR3
Briefly: CDK1 protein degradation in OVCAR3 cells (Western blot). The note with it: 24 h. As for the experimental part:
as §1, §2, §3

Each structure is given as a SMILES string. pIC50: −log10 of the molar value.

T3 sequence (P11802 whole entry): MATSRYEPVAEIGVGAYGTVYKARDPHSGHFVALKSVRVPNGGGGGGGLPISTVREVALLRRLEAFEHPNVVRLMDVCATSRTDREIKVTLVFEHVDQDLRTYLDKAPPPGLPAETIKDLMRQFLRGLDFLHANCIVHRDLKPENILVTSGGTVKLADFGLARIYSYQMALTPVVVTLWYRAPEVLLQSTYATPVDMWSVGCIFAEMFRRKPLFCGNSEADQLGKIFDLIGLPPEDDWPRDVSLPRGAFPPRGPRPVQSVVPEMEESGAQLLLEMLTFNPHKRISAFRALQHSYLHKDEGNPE
T4 sequence (P06493 whole entry): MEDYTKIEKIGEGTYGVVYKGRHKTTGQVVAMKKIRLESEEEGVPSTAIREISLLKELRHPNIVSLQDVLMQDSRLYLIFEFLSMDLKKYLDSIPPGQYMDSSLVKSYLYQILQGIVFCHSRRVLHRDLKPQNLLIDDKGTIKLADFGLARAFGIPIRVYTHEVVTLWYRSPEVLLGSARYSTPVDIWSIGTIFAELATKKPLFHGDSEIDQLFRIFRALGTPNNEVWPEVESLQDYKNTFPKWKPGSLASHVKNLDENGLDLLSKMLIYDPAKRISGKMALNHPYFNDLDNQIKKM
T1 sequence (Q00534 whole entry): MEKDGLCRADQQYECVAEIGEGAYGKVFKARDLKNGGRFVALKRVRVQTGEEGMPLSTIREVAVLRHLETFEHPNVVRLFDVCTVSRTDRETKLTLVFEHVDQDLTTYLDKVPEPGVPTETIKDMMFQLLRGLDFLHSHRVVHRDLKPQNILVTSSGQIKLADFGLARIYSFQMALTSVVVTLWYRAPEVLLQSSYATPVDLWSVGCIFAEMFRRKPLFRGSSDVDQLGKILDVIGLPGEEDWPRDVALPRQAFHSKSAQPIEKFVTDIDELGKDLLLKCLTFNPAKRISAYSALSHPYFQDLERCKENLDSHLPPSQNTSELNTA

`Cc1nc2c(F)cc(-c3nc(NC4CCN(S(=O)(=O)C5CCN(C6CCN(C7CN(c8cc9c(cc8F)C(=O)N(C8CCC(=O)NC8=O)C9=O)C7)CC6)CC5)CC4)ncc3F)cc2n1C(C)C` (stereo not drawn) [Compound 83]: the DC50 at CDK6 protein (read-out: DC50 CDK6 (half-maximum degradation concentration)) was 0.101 to 0.2 µM; at CDK2 protein (read-out: DC50 CDK2 (half-maximum degradation concentration)), 0.101 to 0.2 µM; at CDK4 protein (read-out: DC50 CDK4 (half-maximum degradation concentration)), > 0.2 µM; on CDK1 protein (read-out: DC50 CDK1 (half-maximum degradation concentration)), 0.101 to 0.2 µM. For the same molecule, the percent CDK6 protein degradation at 0.05 µM on CDK6 protein (OVCAR-3, 50 nM test compound, read-out: level of CDK6 protein degradation) was > 60%. Moreover, on CDK2 protein (50 nM test compound), the “level of CDK2 protein degradation” value is recorded as “++ (31 to 60%)”. For the same molecule, in the assay with OVCAR3 cells, the pIC50 was > 7.00. The percent CDK4 protein degradation at 0.05 µM on CDK4 protein (OVCAR-3, 50 nM test compound, read-out: level of CDK4 protein degradation) was ≤ 10%. For the same molecule, the percent CDK1 protein degradation at 0.05 µM on CDK1 protein (OVCAR-3, 50 nM test compound, read-out: level of CDK1 protein degradation) lay in the range of 31 to 60%.
